Reference: paper PMC12209991 (Clinical Pharmacology in Drug Development, 2025)
Entries after “also recorded” stand apart in the source; their conditions may differ. Read-outs that look alike come from different tables or passages of the source.

Columns and labels:
[1] = Multiple ascending dose (MAD) pharmacokinetics in healthy volunteers, BID for 14 days; format: in vivo, human; conditions: for AUC / Cmax / Tmax / half-life: human, plasma, oral; for Tmax: read-out: Tmax, median [min-max]
Experimental: (§1) Analytes were separated by HPLC on a Waters Atlantis T3 analytical column using a gradient mobile phase (mobile phase A: 10% acetonitrile, 90% water, 10 mM ammonium acetate, 0.3% formic acid; mobile phase B: 90% acetonitrile, 10% water, 10 mM ammonium acetate, 0.3% formic acid) run at 0.4 mL/min with initial mobile phase B concentration of 30%.

CYP3A4 = CYP3A4 (Homo sapiens, UniProt P08684); assay: In vitro metabolism; format: in vitro ADME; conditions: unpublished data
[2] = Pantoprazole (PPI) effect on RBN-3143 pharmacokinetics, cross-over; format: in vivo, human; conditions: for AUC(0-inf) / AUC(0-t) / Cmax: human, plasma, po, single 500 mg oral dose
Experimental: as §1

CYP3A4, sequence (P08684 whole entry): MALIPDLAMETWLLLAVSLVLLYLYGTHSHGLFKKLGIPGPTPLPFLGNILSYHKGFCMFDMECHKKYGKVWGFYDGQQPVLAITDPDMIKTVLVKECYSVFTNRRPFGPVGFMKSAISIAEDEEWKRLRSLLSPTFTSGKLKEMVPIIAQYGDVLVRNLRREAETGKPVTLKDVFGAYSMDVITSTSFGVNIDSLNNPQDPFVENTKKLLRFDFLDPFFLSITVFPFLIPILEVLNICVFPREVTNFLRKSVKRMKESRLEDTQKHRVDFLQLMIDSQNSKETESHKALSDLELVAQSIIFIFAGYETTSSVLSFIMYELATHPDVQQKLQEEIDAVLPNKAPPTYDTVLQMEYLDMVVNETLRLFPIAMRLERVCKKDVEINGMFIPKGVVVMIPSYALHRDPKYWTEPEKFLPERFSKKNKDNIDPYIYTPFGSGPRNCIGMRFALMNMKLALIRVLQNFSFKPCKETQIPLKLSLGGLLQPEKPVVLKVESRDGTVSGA

Work on `CC(=O)N1CCC(COc2cc(F)c3c(=O)[nH]c(CSC4CCOCC4)nc3c2)CC1` [RBN‐3143] yielded a time to steady-state ([1]; BID dosing) of at most 3 days, an AUC ([1]; 150 mg, 150 mg BID, Day 1, plasma, read-out: AUC12, geometric mean (Geo CV%)) of 3470 ng·h/mL and an AUC ([1]; 150 mg, 150 mg BID, Day 1, plasma, read-out: AUC12, mean (SD)) of 3610 ng·h/mL. It also gave a Cmax ([1]; 150 mg, 150 mg BID, Day 1, plasma, read-out: Cmax, geometric mean (Geo CV%)) of 597 ng/mL, a Cmax ([1]; 150 mg, 150 mg BID, Day 1, plasma, read-out: Cmax, mean (SD)) of 623 ng/mL and a Tmax ([1]; 150 mg, 150 mg BID, Day 1, plasma) of 2.5 h. The half-life ([1]; 150 mg, 150 mg BID, Day 1, plasma, read-out: t1/2, geometric mean (Geo CV%) (converted)) was 248 min, the half-life ([1]; 150 mg, 150 mg BID, Day 1, plasma, read-out: t1/2, mean (SD) (converted)) was 271 min and the AUC ([1]; 150 mg, 150 mg BID, Day 14, plasma, read-out: AUC12, geometric mean (Geo CV%)) was 5570 ng·h/mL. It also gave an AUC ([1]; 150 mg, 150 mg BID, Day 14, plasma, read-out: AUC12, mean (SD)) of 5660 ng·h/mL, a Cmax ([1]; 150 mg, 150 mg BID, Day 14, plasma, read-out: Cmax, geometric mean (Geo CV%)) of 846 ng/mL and a Cmax ([1]; 150 mg, 150 mg BID, Day 14, plasma, read-out: Cmax, mean (SD)) of 861 ng/mL. The Tmax ([1]; 150 mg, 150 mg BID, Day 14, plasma) was 2.5 h, the AUC ([1]; 300 mg, 300 mg BID, Day 1, plasma, read-out: AUC12, geometric mean (Geo CV%)) was 5540 ng·h/mL and the AUC ([1]; 300 mg, 300 mg BID, Day 1, plasma, read-out: AUC12, mean (SD)) was 5590 ng·h/mL. For the same molecule, the Cmax ([1]; 300 mg, 300 mg BID, Day 1, plasma, read-out: Cmax, geometric mean (Geo CV%)) was 907 ng/mL, the Cmax ([1]; 300 mg, 300 mg BID, Day 1, plasma, read-out: Cmax, mean (SD)) was 925 ng/mL and the Tmax ([1]; 300 mg, 300 mg BID, Day 1, plasma) was 2.5 h. For the same molecule, the half-life ([1]; 300 mg, 300 mg BID, Day 1, plasma, read-out: t1/2, geometric mean (Geo CV%) (converted)) was 249 min, the half-life ([1]; 300 mg, 300 mg BID, Day 1, plasma, read-out: t1/2, mean (SD) (converted)) was 251 min and the AUC ([1]; 300 mg, 300 mg BID, Day 14, plasma, read-out: AUC12, geometric mean (Geo CV%)) was 9550 ng·h/mL. For the same molecule, the AUC ([1]; 300 mg, 300 mg BID, Day 14, plasma, read-out: AUC12, mean (SD)) was 9860 ng·h/mL, the Cmax ([1]; 300 mg, 300 mg BID, Day 14, plasma, read-out: Cmax, geometric mean (Geo CV%)) was 1420 ng/mL and the Cmax ([1]; 300 mg, 300 mg BID, Day 14, plasma, read-out: Cmax, mean (SD)) was 1470 ng/mL. It also gave a Tmax ([1]; 300 mg, 300 mg BID, Day 14, plasma) of 2 h, an AUC ([1]; 500 mg, 500 mg BID, Day 1, plasma, read-out: AUC12, geometric mean (Geo CV%)) of 8040 ng·h/mL and an AUC ([1]; 500 mg, 500 mg BID, Day 1, plasma, read-out: AUC12, mean (SD)) of 8340 ng·h/mL. It also gave a Cmax ([1]; 500 mg, 500 mg BID, Day 1, plasma, read-out: Cmax, geometric mean (Geo CV%)) of 1270 ng/mL, a Cmax ([1]; 500 mg, 500 mg BID, Day 1, plasma, read-out: Cmax, mean (SD)) of 1320 ng/mL and a Tmax ([1]; 500 mg, 500 mg BID, Day 1, plasma) of 2.52 h. For the same molecule, the half-life ([1]; 500 mg, 500 mg BID, Day 1, plasma, read-out: t1/2, geometric mean (Geo CV%) (converted)) was 263 min, the half-life ([1]; 500 mg, 500 mg BID, Day 1, plasma, read-out: t1/2, mean (SD) (converted)) was 263 min and the AUC ([1]; 500 mg, 500 mg BID, Day 14, plasma, read-out: AUC12, geometric mean (Geo CV%)) was 12400 ng·h/mL. For the same molecule, the AUC ([1]; 500 mg, 500 mg BID, Day 14, plasma, read-out: AUC12, mean (SD)) was 12600 ng·h/mL, the Cmax ([1]; 500 mg, 500 mg BID, Day 14, plasma, read-out: Cmax, geometric mean (Geo CV%)) was 1830 ng/mL and the Cmax ([1]; 500 mg, 500 mg BID, Day 14, plasma, read-out: Cmax, mean (SD)) was 1880 ng/mL. For the same molecule, the Tmax ([1]; 500 mg, 500 mg BID, Day 14, plasma) was 1.5 h, the metabolizing enzyme (CYP3A4) was “predominantly metabolized by cytochrome P4503A4 (CYP3A4)” and the AUC(0-inf) ([2]; 500 mg, fasted without pantoprazole, N=12, linear mixed-effects model, read-out: AUCinf, GLSM) was 13300 ng·h/mL. The AUC(0-t) ([2]; 500 mg, fasted without pantoprazole, N=12, linear mixed-effects model, read-out: AUClast, GLSM) was 12800 ng·h/mL, the Cmax ([2]; 500 mg, fasted without pantoprazole, N=12, linear mixed-effects model, read-out: Cmax, GLSM) was 1530 ng/mL and the AUC(0-inf) ([2]; 500 mg, fasted without pantoprazole, read-out: AUCinf, geometric mean (Geo CV%)) was 13300 ng·h/mL. For the same molecule, the AUC(0-inf) ([2]; 500 mg, fasted without pantoprazole, read-out: AUCinf, mean (SD)) was 13800 ng·h/mL, the AUC(0-t) ([2]; 500 mg, fasted without pantoprazole, read-out: AUClast, geometric mean (Geo CV%)) was 12800 ng·h/mL and the AUC(0-t) ([2]; 500 mg, fasted without pantoprazole, read-out: AUClast, mean (SD)) was 13300 ng·h/mL. The Cmax ([2]; 500 mg, fasted without pantoprazole, read-out: Cmax, geometric mean (Geo CV%)) was 1530 ng/mL, the Cmax ([2]; 500 mg, fasted without pantoprazole, read-out: Cmax, mean (SD)) was 1600 ng/mL and the AUC(0-inf) ([2]; fasted with pantoprazole 40 mg QD, N=12, linear mixed-effects model, read-out: AUCinf, GLSM) was 13800 ng·h/mL. The AUC(0-t) ([2]; fasted with pantoprazole 40 mg QD, N=12, linear mixed-effects model, read-out: AUClast, GLSM) was 13400 ng·h/mL, the Cmax ([2]; fasted with pantoprazole 40 mg QD, N=12, linear mixed-effects model, read-out: Cmax, GLSM) was 1560 ng/mL and the AUC(0-inf) ([2]; fasted with pantoprazole 40 mg QD, read-out: AUCinf, geometric mean (Geo CV%)) was 13300 ng·h/mL. It also gave an AUC(0-inf) ([2]; fasted with pantoprazole 40 mg QD, read-out: AUCinf, mean (SD)) of 13700 ng·h/mL, an AUC(0-t) ([2]; fasted with pantoprazole 40 mg QD, read-out: AUClast, geometric mean (Geo CV%)) of 13000 ng·h/mL and an AUC(0-t) ([2]; fasted with pantoprazole 40 mg QD, read-out: AUClast, mean (SD)) of 13400 ng·h/mL. The Cmax ([2]; fasted with pantoprazole 40 mg QD, read-out: Cmax, geometric mean (Geo CV%)) was 1540 ng/mL, the Cmax ([2]; fasted with pantoprazole 40 mg QD, read-out: Cmax, mean (SD)) was 1580 ng/mL and the “effect of pantoprazole on RBN-3143 exposure/PK” value ([2]; pantoprazole 40 mg QD pre-treatment, RBN-3143 500 mg) was “did not impact; also recorded: no effect; also recorded: did not alter; also recorded: unaffected”.
